Read-outs that look alike come from different tables or passages of the source.
What was measured:
P. mirabilis 1285 [1] = format: cell-based, Proteus mirabilis
P. aeruginosa 8732 = assay: Antibiotic MIC by microdilution with or without sub-MIC polymer; format: cell-based, Pseudomonas aeruginosa
Experimental: (§1) MICs were determined by microdilution susceptibility testing in 96-well plates (by Nunc) using inocula of 10^5 bacteria per ml. Cell populations were evaluated by optical density measurements at 620 nm and were calibrated against a set of standards. Hundred (100) μl of a bacterial suspension were added to 100 μl of culture medium (control) or to 100 μl of culture medium containing various polymer concentrations in 2-fold serial dilutions. Inhibition of proliferation was determined by optical density measurements at 620 nm after an incubation period of 24 hours at 37° C.
Inhibition of proliferation was determined by optical density measurements at 620 nm after an incubation period of 24 hours at 37° C.

MRSA 15852 = format: cell-based, Staphylococcus aureus; settings: S. aureus 15852
Experimental: The fractionary inhibitory (FIC) concentration index for combinations of two antimicrobial agents was calculated as follows: FIC index=FICA+FICB=A/MICA+B/MICB where A and B are the MIC values of agent A and agent B in the combination, MICA and MICB are the MICs of agent A and agent B alone, and FICA and FICB are the FICs of agent A and agent B.
The FIC indexes were interpreted as follows: less than 0.5 indicates a clear re-sensitizing effect; from 0.5 to 4 indicates a marginal or null re-sensitizing effect; and over 4 indicates antagonism.

E. coli 16329 = format: cell-based, Escherichia coli
Experimental: as §1
(§2) 100 μl of a bacterial suspension were added to 100 μl of culture medium (control) or to 100 μl of culture medium containing various antibiotic and C14(9-ene)KKNC12KNH2 (SEQ ID NO: 5) concentrations in 2-fold serial dilutions. Inhibition of proliferation was determined by optical density measurements at 620 nm after an incubation period of 24 hours at 37° C.

P. mirabilis 1285 [2] = format: cell-based, Proteus mirabilis; settings: no polymer (None), Table 12
Experimental: as §1, §2

S. aureus 15877 = assay: Antibiotic MIC by microdilution with or without sub-MIC polymer; format: cell-based, Staphylococcus aureus
Experimental: MICs were determined by microdilution susceptibility testing in 96-well plates (Nunc) using inocula of 10^5 bacteria per ml. One hundred (100) μl of a bacterial suspension were added to 100 μl of culture medium (control) or to 100 μl of culture medium containing various antibiotic and C12(5-ene)KKNC12KNH2 (SEQ ID NO: 2) concentrations in 2-fold serial dilutions. Inhibition of proliferation was determined by optical density measurements at 620 nm after an incubation period of 24 hours at 37° C.

E. coli AG100 = assay: Antibiotic MIC with or without sub-MIC polymer (Tables 20, 21); format: cell-based, Escherichia coli
S. aureus 17314 = assay: Antibiotic MIC by microdilution with or without sub-MIC polymer; format: cell-based, Staphylococcus aureus
E. coli AG100/ks = assay: Antibiotic MIC with or without sub-MIC polymer (Tables 20, 21); format: cell-based, Escherichia coli
[3] = +¼ MIC (1.6 μM) C12(5-ene)KKNC12KNH2
[4] = +½ MIC (3.12 μM) C12(5-ene)KKNC12KNH2
[5] = +⅓ MIC (2.1 μM) C12(5-ene)KKNC12KNH2

CC1(C)S[C@@H]2[C@H](NC(=O)Cc3ccccc3)C(=O)N2[C@H]1C(=O)O [Penicillin G, penicillin G]
64 µg/mL: Antibiotic MIC (MRSA 15852; +¼ MIC (1.6 μM) C12KKNC12KNH2) | Antibiotic MIC (MRSA 15852; +½ MIC (3.12 μM) C12KKNC12KNH2) | Antibiotic MIC (MRSA 15852; +⅓ MIC (2.1 μM) C12KKNC12KNH2) | Antibiotic MIC (MRSA 15852; no polymer (None), Table 11) | Antibiotic MIC (S. aureus 17314; S. aureus 17314, +½ MIC (3.12 μM) C12K(KNC12K)2NH2) | Antibiotic MIC (S. aureus 17314; S. aureus 17314, +½ MIC (3.12 μM) C12KKNC12KNH2)
16 µg/mL: Antibiotic MIC in presence of C12K(NC8K)5NH2 (SEQ ID NO: 3), +¼ MIC (E. coli AG100; polymer at ¼ of its MIC) | Antibiotic MIC in presence of C12K(NC8K)5NH2 (SEQ ID NO: 3), +⅓ MIC (E. coli AG100; polymer at ⅓ of its MIC)
8 to 16 µg/mL: Antibiotic MIC in presence of C12K(NC8K)7NH2 (SEQ ID NO: 4), +⅓ MIC (E. coli AG100; polymer at ⅓ of its MIC) | Antibiotic MIC (S. aureus 17314; S. aureus 17314, no polymer (None), Table 10)
2 µg/mL: Antibiotic MIC (S. aureus 17314; S. aureus 17314, +¼ MIC (1.6 μM) C16(9-ene)KKNC12KNH2)
256 µg/mL: Antibiotic MIC (E. coli 16329) | Antibiotic MIC (E. coli 16329; E. coli U-16329, +¼ MIC C12K(NC8K)5NH2) | Antibiotic MIC (E. coli 16329; E. coli U-16329, +½ MIC C12K(NC8K)5NH2) | Antibiotic MIC (E. coli 16329; E. coli U-16329, +⅓ MIC C12K(NC8K)5NH2) | Antibiotic MIC, None (E. coli 16329; E. coli U-16329, antibiotic alone (Table 15)) | Antibiotic MIC (E. coli 16329; E. coli U-16329, no polymer (None), Table 14) | Antibiotic MIC in presence of C12K(NC8K)7NH2 (SEQ ID NO: 4), +¼ MIC (E. coli 16329; E. coli U-16329, polymer at ¼ of its MIC)
32 µg/mL: Antibiotic MIC (MRSA 15852; [3]) | Antibiotic MIC (MRSA 15852; [4]) | Antibiotic MIC (MRSA 15852; [5]) | Antibiotic MIC (MRSA 15852; no polymer (None), Table 8) | Antibiotic MIC, None (E. coli AG100; antibiotic alone (Table 20)) | Antibiotic MIC, None (E. coli AG100; antibiotic alone (Table 21))
>512 µg/mL: Antibiotic MIC, None (E. coli AG100/ks; antibiotic alone (Table 20)) | Antibiotic MIC, None (E. coli AG100/ks; antibiotic alone (Table 21)) | Antibiotic MIC in presence of C12K(NC8K)5NH2 (SEQ ID NO: 3), +¼ MIC (E. coli AG100/ks; polymer at ¼ of its MIC) | Antibiotic MIC in presence of C12K(NC8K)5NH2 (SEQ ID NO: 3), +½ MIC (E. coli AG100/ks; polymer at ½ of its MIC) | Antibiotic MIC in presence of C12K(NC8K)5NH2 (SEQ ID NO: 3), +⅓ MIC (E. coli AG100/ks; polymer at ⅓ of its MIC)
64 to 128 µg/mL: Antibiotic MIC (S. aureus 17314)
1 µg/mL: Antibiotic MIC (S. aureus 17314; S. aureus 17314, +⅓ MIC (2.1 μM) C16(9-ene)KKNC12KNH2)
0.5 µg/mL: Antibiotic MIC (S. aureus 17314; S. aureus 17314, +½ MIC (3.12 μM) C16(9-ene)KKNC12KNH2)
512 µg/mL: Antibiotic MIC (P. mirabilis 1285 [1]; +¼ MIC (1.6 μM) C12K(KNC12K)2NH2) | Antibiotic MIC (P. mirabilis 1285 [1]; +½ MIC (3.12 μM) C12K(KNC12K)2NH2) | Antibiotic MIC (P. mirabilis 1285 [1]; +⅓ MIC (2.1 μM) C12K(KNC12K)2NH2) | Antibiotic MIC (P. aeruginosa 8732) | Antibiotic MIC (P. aeruginosa 8732; P. aeruginosa 8732, +½ MIC (3.12 μM) C16(9-ene)KKNC12KNH2) | Antibiotic MIC (P. aeruginosa 8732; P. aeruginosa 8732, +⅓ MIC (2.1 μM) C16(9-ene)KKNC12KNH2) | Antibiotic MIC (P. aeruginosa 8732; P. aeruginosa 8732, no polymer (None), Table 10) | Antibiotic MIC (E. coli 16329; E. coli 16329, no polymer (None), Table 10) | Antibiotic MIC (P. mirabilis 1285 [2])
128 µg/mL: Antibiotic MIC (S. aureus 17314; S. aureus 17314, +¼ MIC (1.6 μM) C12K(KNC12K)2NH2) | Antibiotic MIC (S. aureus 17314; S. aureus 17314, +⅓ MIC (2.1 μM) C12K(KNC12K)2NH2) | Antibiotic MIC (S. aureus 17314; S. aureus 17314, no polymer (None), Table 11) | Antibiotic MIC (S. aureus 17314; S. aureus 17314, no polymer (None), Table 12)
6 µg/mL: Antibiotic MIC (S. aureus 17314; S. aureus 17314, +½ MIC (3.12 μM) C14(9-ene)KKNC12KNH2)
16 to 32 µg/mL: Antibiotic MIC in presence of C12K(NC8K)7NH2 (SEQ ID NO: 4), +¼ MIC (E. coli AG100; polymer at ¼ of its MIC)
8 µg/mL: Antibiotic MIC (S. aureus 15877; [3]) | Antibiotic MIC (S. aureus 15877; [4]) | Antibiotic MIC (S. aureus 15877; [5]) | Antibiotic MIC (S. aureus 15877; no polymer (None), Table 8) | Antibiotic MIC in presence of C12K(NC8K)5NH2 (SEQ ID NO: 3), +½ MIC (E. coli AG100; polymer at ½ of its MIC) | Antibiotic MIC in presence of C12K(NC8K)7NH2 (SEQ ID NO: 4), +½ MIC (E. coli AG100; polymer at ½ of its MIC) | Antibiotic MIC (S. aureus 17314; S. aureus 17314, +¼ MIC (1.6 μM) C14(9-ene)KKNC12KNH2) | Antibiotic MIC (S. aureus 17314; S. aureus 17314, +⅓ MIC (2.1 μM) C14(9-ene)KKNC12KNH2) | Antibiotic MIC (S. aureus 17314; S. aureus 17314, no polymer (None), Table 9)
128 to 256 µg/mL: Antibiotic MIC in presence of C12K(NC8K)7NH2 (SEQ ID NO: 4), +½ MIC (E. coli 16329; E. coli U-16329, polymer at ½ of its MIC) | Antibiotic MIC in presence of C12K(NC8K)7NH2 (SEQ ID NO: 4), +⅓ MIC (E. coli 16329; E. coli U-16329, polymer at ⅓ of its MIC)

Source: patent publication US20180153995A1, “USE OF ANTIMICROBIAL POLYMERS FOR RE-SENSITIZATION OF MICROORGANISMS UPON EMERGENCE OF RESISTANCE TO ANTI-MICROBIAL AGENTS” (Technion Research & Development Foundation Limited, priority 2008, published 2018)
